PMC10366102, “Dose escalation and expansion cohorts in patients with advanced breast cancer in a Phase I study of the CDK7-inhibitor samuraciclib” (Nature Communications, 2023)

Experiments:
MCF7 cell line = assay: Antibody validation, immunohistochemistry of treated cells, pCDK1/2/3; format: cell-based, human; conditions: MCF7 cell line treated with samuraciclib
Procedure: (§1) SUPPLEMENTARY TABLE 12: ANTIBODIES USED
(§2) Antibody Application Supplier & Description Dilution/ Validation […]
(§3) RNA pol II Immunohistoche Abcam Rabbit Immuno- Immunohistochemistry: pSer5 mistry (Fig 3); ab193467 monoclonal histochemistry: Positive nuclear staining Flow cytometry [EPR19015] to 1 in 8000 in normal spleen
(§4) (Supplementary RNA 0.02 µg/mL samples. Significant
(§5) Figure 5) polymerase II reduction in staining in CTD repeat Flow cytometry: MCF7 cell line treated
(§6) YSPTSPS 1 in 100 with samuraciclib. […]
(§7) intensity of labelling in […]
(§8) pCDK1/2/ Immunohistoche Abcam Rabbit 1 in 500 Immunohistochemistry:
(§9) 3 mistry (Fig 3) ab201008 monoclonal 1.2 μg/mL Positive nuclear staining [EPR19546] to in normal tonsil samples.
(§10) T161) + CDK2 staining in MCF7 cell
(§11) (phospho T160) line treated with
(§12) Goat anti- Flow cytometry Abcam Polyclonal goat 1 in 1000 Flow cytometry: No Rabbit IgG (Supplementary ab150077 anti-rabbit IgG 2.0 μg/mL significant binding to H&L Figure 5) H&L peripheral blood
(§13) AlexaFluor conjugated to mononucleated cells in 488 AlexaFluor 488 absence of primary

CDK7 = conditions: cited from earlier work
[1] = parameters: method as in ref IB; conditions: rat microsomes; ref IB; cited from earlier work
[2] = system: patients with locally advanced and/or metastatic TNBC; conditions: both, human, in vivo
Procedure: A single arm expansion was conducted to refine the safety, tolerability, PK, and pharmacodynamic profiles of samuraciclib monotherapy (360 mg OD) in male or female patients with advanced TNBC. Patients with histological, radiological or cytological confirmation of metastasis or locally advanced TNBC not considered to be appropriate for further standard treatment, who had received at least 1 line of systemic anti-cancer therapy, and measurable disease according to the RECIST V1.1, were eligible.
Patients underwent regular safety monitoring and 8-week scans reported using RECIST V1.1.
Module 1B-1 was a cohort expansion to explore the safety, tolerability, PK and pharmacodynamic effects, and anti-tumor activity of samuraciclib when given as monotherapy to patients with advanced TNBC; participants were treated at a starting dose of 360 mg once daily (OD). The initial sample size was to be a maximum of 50 participants, of whom approximately 30 participants were to receive the CT7001 dosing regimen which was declared as the RP2D.
Module 1B-1 included an interim efficacy analysis when 15 patients in the RP2D Population were evaluable for efficacy assessments. The Module 1B-1 TNBC expansion phase was designed using a 2-stage design. The null hypothesis for the ORR was 10% and this was tested against an alternative […]
patients were to be recruited, and the […]. Otherwise, recruitment was to continue until up to a total of 30 evaluable patients were recruited and if ≥6/30 (20%) responses were observed, across both stages of the study, the null hypothesis was to be rejected. At the timepoint for the interim efficacy assessment, the requirement of 2 or more participants achieving a Response Evaluation Criteria in Solid Tumors (RECIST) PR had not been met, with only 1 participant in the first 15 evaluable participants achieving a PR. However, 8 out of 15 evaluable participants achieved SD, with 4 participants being treated for at least 16 weeks, which in this aggressive tumor type is of significant clinical note. Following discussion with the SRC it was agreed that further evaluable participants would be recruited into this expansion study.
The schedule of assessments for this study is provided in Supplementary Table 3. […]
Duration of response (DoR) was defined as the time from documentation of tumor response to disease progression. Progression-free survival (PFS) was […]
cause, whichever occurred first. Efficacy results were summarized descriptively and Kaplan -Meier plots provided where appropriate. […]
received at least 1 dose of samuraciclib). These were summarized by Medical Dictionary for Regulatory […]
adverse events (SAEs) were analyzed and reported separately. Details of any deaths were listed. All […]
were listed individually by patient and summarized descriptively. For urinalysis parameters, any […]
positive. Abnormal physical examina tion findings were listed.

[3] = parameters: method as in ref IB; conditions: ref IB, cited from earlier work
hERG channel = system: hERG channel; parameters: method as in ref IB; conditions: whole-cell patch-clamp, HEK cells, ref IB, cited from earlier work
[4] = parameters: method as in ref IB; conditions: ref IB, cited from earlier work; remark: listed apart in the source
[5] = system: peripheral blood mononucleated cells; assay: Antibody validation, flow cytometry of cells treated ex vivo, RNA pol II pSer5; format: cell-based, human
Procedure: as §1, §2, §3, §4, §5, §6, §7, §8, §9, §10, §11, §12, §13

Structure (SMILES): CC(C)c1cnn2c(NCc3ccccc3)cc(NC[C@H]3CCNC[C@@H]3O)nc12 [samuraciclib, Samuraciclib]
- pCDK1/2/3 staining (MCF7 cell line): Significant reduction in
- Intrinsic clearance [1]: high
- ALT increased; All AEs [2]: 0 patients (%)
- ALT increased; Grade ≥3 [2]: 0 patients (%)
- AST increased; All AEs [2]: 0 patients (%)
- AST increased; Grade ≥3 [2]: 0 patients (%)
- Abdominal pain upper; All AEs [2]: 0 patients (%)
- Abdominal pain upper; Grade ≥3 [2]: 0 patients (%)
- Abdominal pain; All AEs [2]: 6 (26.1) patients (%)
- Abdominal pain; Grade ≥3 [2]: 0 patients (%)
- Anemia; All AEs [2]: 0 patients (%)
- Anemia; Grade ≥3 [2]: 1 (4.3) patients (%)
- Any treatment-emergent AE; All AEs [2]: 23 (100.0) patients (%)
- Any treatment-emergent AE; Grade ≥3 [2]: 10 (43.5) patients (%)
- Back pain; All AEs [2]: 0 patients (%)
- Back pain; Grade ≥3 [2]: 0 patients (%)
- Constipation; All AEs [2]: 7 (30.4) patients (%)
- Constipation; Grade ≥3 [2]: 0 patients (%)
- Cough; All AEs [2]: 3 (13.0) patients (%)
- Cough; Grade ≥3 [2]: 0 patients (%)
- Decreased appetite; All AEs [2]: 3 (13.0) patients (%)
- Decreased appetite; Grade ≥3 [2]: 0 patients (%)
- Diarrhea; All AEs [2]: 21 (91.3) patients (%)
- Diarrhea; Grade ≥3 [2]: 3 (13.0) patients (%)
- Discontinued samuraciclib due to related AEs [2]: 4.3%
- Dizziness; All AEs [2]: 0 patients (%)
- Dizziness; Grade ≥3 [2]: 0 patients (%)
- Dysgeusia; All AEs [2]: 0 patients (%)
- Dysgeusia; Grade ≥3 [2]: 0 patients (%)
- Dysphagia; All AEs [2]: 0 patients (%)
- Dysphagia; Grade ≥3 [2]: 0 patients (%)
- Dyspnea; All AEs [2]: 0 patients (%)
- Dyspnea; Grade ≥3 [2]: 0 patients (%)
- Fatigue; All AEs [2]: 11 (47.8) patients (%)
- Fatigue; Grade ≥3 [2]: 1 (4.3) patients (%)
- Headache; All AEs [2]: 0 patients (%)
- Headache; Grade ≥3 [2]: 0 patients (%)
- Hyperglycemia; All AEs [2]: 0 patients (%)
- Hyperglycemia; Grade ≥3 [2]: 0 patients (%)
- Hypocalcaemia; All AEs [2]: 0 patients (%)
- Hypocalcaemia; Grade ≥3 [2]: 0 patients (%)
- Hypokalaemia; All AEs [2]: 0 patients (%)
- Hypokalaemia; Grade ≥3 [2]: 0 patients (%)
- Nausea; All AEs [2]: 22 (95.7) patients (%)
- Nausea; Grade ≥3 [2]: 1 (4.3) patients (%)
- Rash; All AEs [2]: 0 patients (%)
- Rash; Grade ≥3 [2]: 0 patients (%)
- Stomatitis; All AEs [2]: 3 (13.0) patients (%)
- Stomatitis; Grade ≥3 [2]: 1 (4.3) patients (%)
- Taste disorder; All AEs [2]: 0 patients (%)
- Taste disorder; Grade ≥3 [2]: 0 patients (%)
- Upper respiratory tract infection; All AEs [2]: 3 (13.0) patients (%)
- Upper respiratory tract infection; Grade ≥3 [2]: 0 patients (%)
- Urinary tract infection; All AEs [2]: 0 patients (%)
- Urinary tract infection; Grade ≥3 [2]: 0 patients (%)
- Vomiting; All AEs [2]: 14 (60.9) patients (%)
- Vomiting; Grade ≥3 [2]: 2 (8.7) patients (%)
- Weight decreased; All AEs [2]: 0 patients (%)
- Weight decreased; Grade ≥3 [2]: 0 patients (%)
- Oral bioavailability ([3]; dog): good oral bioavailability
- Apparent elimination half-life (T½) ([3]; dogs): 9.5 h
- Plasma clearance ([3]; dogs): high
- Volume of distribution ([3]; dogs): high volume of distribution
- Overall turnover ([4]; human hepatocytes): low
- Phase II metabolism (e.g., glucuronidation) ([4]; mouse and human hepatocytes): No evidence
- RNA pol II pSer5 intensity of labelling [5]: Significant reduction in
